These results are taken from ChEMBL document CHEMBL3045275, “Synthesis and antibacterial activity of some new hydrazones” (2013).

The first assay deals with Bacillus subtilis. Nature of the assay: Antibacterial activity against Bacillus subtilis assessed as diameter of growth inhibition zone at 100 ug/ml after 24 hr by agar diffusion method. It counts as functional. The following applies: read-out: DIZ. In general terms: A growth-free zone around the sample is the usual read-out of agar diffusion tests.
As to `O=[N+]([O-])c1ccc(N/N=C(/C=C/c2ccccc2)c2ccccc2)c([N+](=O)[O-])c1`, the zone of inhibition at 100 µg/mL came to 9 mm.
Regarding `CC(/C=C/c1ccccc1)=N\Nc1ccccc1`, the zone of inhibition at 100 µg/mL is 8.5 mm.
Same read-out and setting: as for `CC1=NC(=C/c2ccccc2)/C(=N/Nc2ccccc2)O1`, the figure is 9.5 mm; as for `CC1=NC(=C/c2ccccc2)/C(=N/Nc2ccc([N+](=O)[O-])cc2[N+](=O)[O-])O1`, 9 mm.
With `CC(/C=C/c1ccccc1)=N/Nc1nc(-c2ccccc2)cs1`, the zone of inhibition at 100 µg/mL worked out at 8.5 mm.

A further assay concerns Proteus mirabilis. Nature of the assay: Antibacterial activity against Proteus mirabilis assessed as diameter of growth inhibition zone at 50 ug/ml after 24 hr by agar diffusion method. Format: functional. To be noted: read-out: DIZ.
For `O=[N+]([O-])c1ccc(N/N=C(/C=C/c2ccccc2)c2ccccc2)c([N+](=O)[O-])c1`, the zone of inhibition at 50 µg/mL stood at 6.5 mm.
For the compound `CC(/C=C/c1ccccc1)=N\Nc1ccccc1`, the zone of inhibition at 50 µg/mL is 6 mm.
On the same count and under the same terms, as for `CC1=NC(=C/c2ccccc2)/C(=N/Nc2ccccc2)O1`, the figure is 6.5 mm; as for `CC1=NC(=C/c2ccccc2)/C(=N/Nc2ccc([N+](=O)[O-])cc2[N+](=O)[O-])O1`, 6 mm; as for `CC(/C=C/c1ccccc1)=N/Nc1nc(-c2ccccc2)cs1`, 6.5 mm.

In the next assay the test system is Salmonella typhi. Nature of the assay: Antibacterial activity against Salmonella enterica subsp. enterica serovar Typhi assessed as diameter of growth inhibition zone at 50 ug/ml after 24 hr by agar diffusion method. It counts as functional. To be noted: read-out: DIZ.
On to `O=[N+]([O-])c1ccc(N/N=C(/C=C/c2ccccc2)c2ccccc2)c([N+](=O)[O-])c1`, for which the zone of inhibition at 50 µg/mL was 6.5 mm.
The same measure, in the same setting: as for `CC(/C=C/c1ccccc1)=N\Nc1ccccc1`, the figure is 6.5 mm.
The same measure, in the same setting: as for `CC1=NC(=C/c2ccccc2)/C(=N/Nc2ccccc2)O1`, the figure is 6 mm; as for `CC1=NC(=C/c2ccccc2)/C(=N/Nc2ccc([N+](=O)[O-])cc2[N+](=O)[O-])O1`, 6.5 mm.
Regarding `CC(/C=C/c1ccccc1)=N/Nc1nc(-c2ccccc2)cs1`, the zone of inhibition at 50 µg/mL is 6 mm.

Another assay has as its system Pseudomonas aeruginosa. Nature of the assay: Antibacterial activity against Pseudomonas aeruginosa assessed as diameter of growth inhibition zone at 50 ug/ml after 24 hr by agar diffusion method. Format: functional. To be noted: read-out: DIZ.
Regarding `O=[N+]([O-])c1ccc(N/N=C(/C=C/c2ccccc2)c2ccccc2)c([N+](=O)[O-])c1`, the zone of inhibition at 50 µg/mL worked out at 6 mm.
For `CC(/C=C/c1ccccc1)=N\Nc1ccccc1`, the zone of inhibition at 50 µg/mL was 6 mm.
On to `CC1=NC(=C/c2ccccc2)/C(=N/Nc2ccccc2)O1`, for which the zone of inhibition at 50 µg/mL was determined as 6 mm.
On the same count and under the same terms, as for `CC1=NC(=C/c2ccccc2)/C(=N/Nc2ccc([N+](=O)[O-])cc2[N+](=O)[O-])O1`, the figure is 6 mm.
For `CC(/C=C/c1ccccc1)=N/Nc1nc(-c2ccccc2)cs1`, the zone of inhibition at 50 µg/mL was 6 mm.

For the next assay, the system named is Escherichia coli. Nature of the assay: Antibacterial activity against Escherichia coli assessed as diameter of growth inhibition zone at 50 ug/ml after 24 hr by agar diffusion method. The following applies: read-out: DIZ. It counts as functional.
As to `O=[N+]([O-])c1ccc(N/N=C(/C=C/c2ccccc2)c2ccccc2)c([N+](=O)[O-])c1`, the zone of inhibition at 50 µg/mL is 6.5 mm.
As for `CC(/C=C/c1ccccc1)=N\Nc1ccccc1`, the zone of inhibition at 50 µg/mL was 6 mm.
The same measure, in the same setting: as for `CC1=NC(=C/c2ccccc2)/C(=N/Nc2ccccc2)O1`, the figure is 6.5 mm; as for `CC1=NC(=C/c2ccccc2)/C(=N/Nc2ccc([N+](=O)[O-])cc2[N+](=O)[O-])O1`, 6 mm.
The same measure, in the same setting: as for `CC(/C=C/c1ccccc1)=N/Nc1nc(-c2ccccc2)cs1`, the figure is 6 mm.

A further assay deals with Staphylococcus aureus. Nature of the assay: Antibacterial activity against Staphylococcus aureus assessed as diameter of growth inhibition zone at 50 ug/ml after 24 hr by agar diffusion method. To be noted: read-out: DIZ. It counts as functional.
In the case of `O=[N+]([O-])c1ccc(N/N=C(/C=C/c2ccccc2)c2ccccc2)c([N+](=O)[O-])c1`, the zone of inhibition at 50 µg/mL was found to be 6 mm.
With `CC(/C=C/c1ccccc1)=N\Nc1ccccc1`, the zone of inhibition at 50 µg/mL came to 6 mm.
Same read-out and setting: as for `CC1=NC(=C/c2ccccc2)/C(=N/Nc2ccccc2)O1`, the figure is 14 mm.
Turning to `CC1=NC(=C/c2ccccc2)/C(=N/Nc2ccc([N+](=O)[O-])cc2[N+](=O)[O-])O1`, the zone of inhibition at 50 µg/mL was determined as 6.5 mm.
Same read-out and setting: as for `CC(/C=C/c1ccccc1)=N/Nc1nc(-c2ccccc2)cs1`, the figure is 6.5 mm.

A further assay deals with Bacillus subtilis. Nature of the assay: Antibacterial activity against Bacillus subtilis assessed as diameter of growth inhibition zone at 50 ug/ml after 24 hr by agar diffusion method. It counts as functional. The following applies: read-out: DIZ.
On to `O=[N+]([O-])c1ccc(N/N=C(/C=C/c2ccccc2)c2ccccc2)c([N+](=O)[O-])c1`, for which the zone of inhibition at 50 µg/mL worked out at 6.5 mm.
The same measure, in the same setting: as for `CC(/C=C/c1ccccc1)=N\Nc1ccccc1`, the figure is 6.5 mm; as for `CC1=NC(=C/c2ccccc2)/C(=N/Nc2ccccc2)O1`, 6 mm.
On the same count and under the same terms, as for `CC1=NC(=C/c2ccccc2)/C(=N/Nc2ccc([N+](=O)[O-])cc2[N+](=O)[O-])O1`, the figure is 6 mm; as for `CC(/C=C/c1ccccc1)=N/Nc1nc(-c2ccccc2)cs1`, 6 mm.

The subject of another assay is Proteus mirabilis. Nature of the assay: Antibacterial activity against Proteus mirabilis assessed as diameter of growth inhibition zone at 100 ug/ml after 24 hr by agar diffusion method. It counts as functional. To be noted: read-out: DIZ.
As for `O=[N+]([O-])c1ccc(N/N=C(/C=C/c2ccccc2)c2ccccc2)c([N+](=O)[O-])c1`, the zone of inhibition at 100 µg/mL is 9.5 mm.
The same measure, in the same setting: as for `CC(/C=C/c1ccccc1)=N\Nc1ccccc1`, the figure is 9 mm.
Regarding `CC1=NC(=C/c2ccccc2)/C(=N/Nc2ccccc2)O1`, the zone of inhibition at 100 µg/mL came out at 8.5 mm.
With `CC1=NC(=C/c2ccccc2)/C(=N/Nc2ccc([N+](=O)[O-])cc2[N+](=O)[O-])O1`, the zone of inhibition at 100 µg/mL was 9.5 mm.
The same measure, in the same setting: as for `CC(/C=C/c1ccccc1)=N/Nc1nc(-c2ccccc2)cs1`, the figure is 8 mm.

Another assay has as its system Salmonella typhi. Nature of the assay: Antibacterial activity against Salmonella enterica subsp. enterica serovar Typhi assessed as diameter of growth inhibition zone at 100 ug/ml after 24 hr by agar diffusion method. Format: functional. To be noted: read-out: DIZ.
Take `O=[N+]([O-])c1ccc(N/N=C(/C=C/c2ccccc2)c2ccccc2)c([N+](=O)[O-])c1`: the zone of inhibition at 100 µg/mL stood at 8.5 mm.
Same read-out and setting: as for `CC(/C=C/c1ccccc1)=N\Nc1ccccc1`, the figure is 8.5 mm; as for `CC1=NC(=C/c2ccccc2)/C(=N/Nc2ccccc2)O1`, 8 mm.
The same measure, in the same setting: as for `CC1=NC(=C/c2ccccc2)/C(=N/Nc2ccc([N+](=O)[O-])cc2[N+](=O)[O-])O1`, the figure is 8 mm; as for `CC(/C=C/c1ccccc1)=N/Nc1nc(-c2ccccc2)cs1`, 8 mm.

For another assay, the system named is Pseudomonas aeruginosa. Nature of the assay: Antibacterial activity against Pseudomonas aeruginosa assessed as diameter of growth inhibition zone at 100 ug/ml after 24 hr by agar diffusion method. To be noted: read-out: DIZ. Format: functional.
Take `O=[N+]([O-])c1ccc(N/N=C(/C=C/c2ccccc2)c2ccccc2)c([N+](=O)[O-])c1`: the zone of inhibition at 100 µg/mL was 8.5 mm.
As to `CC(/C=C/c1ccccc1)=N\Nc1ccccc1`, the zone of inhibition at 100 µg/mL was 8.5 mm.
Consider `CC1=NC(=C/c2ccccc2)/C(=N/Nc2ccccc2)O1`, for which the zone of inhibition at 100 µg/mL amounted to 8 mm.
Same read-out and setting: as for `CC1=NC(=C/c2ccccc2)/C(=N/Nc2ccc([N+](=O)[O-])cc2[N+](=O)[O-])O1`, the figure is 8.5 mm.
On to `CC(/C=C/c1ccccc1)=N/Nc1nc(-c2ccccc2)cs1`, for which the zone of inhibition at 100 µg/mL amounted to 8 mm.

The test system of the next assay is Escherichia coli. Nature of the assay: Antibacterial activity against Escherichia coli assessed as diameter of growth inhibition zone at 100 ug/ml after 24 hr by agar diffusion method. Format: functional. The following applies: read-out: DIZ.
Regarding `O=[N+]([O-])c1ccc(N/N=C(/C=C/c2ccccc2)c2ccccc2)c([N+](=O)[O-])c1`, the zone of inhibition at 100 µg/mL turned out to be 8 mm.
Take `CC(/C=C/c1ccccc1)=N\Nc1ccccc1`: the zone of inhibition at 100 µg/mL came to 8.5 mm.
With `CC1=NC(=C/c2ccccc2)/C(=N/Nc2ccccc2)O1`, the zone of inhibition at 100 µg/mL was 9 mm.
For `CC1=NC(=C/c2ccccc2)/C(=N/Nc2ccc([N+](=O)[O-])cc2[N+](=O)[O-])O1`, the zone of inhibition at 100 µg/mL is 8.5 mm.
For the compound `CC(/C=C/c1ccccc1)=N/Nc1nc(-c2ccccc2)cs1`, the zone of inhibition at 100 µg/mL came out at 9 mm.

Another assay deals with Staphylococcus aureus. Nature of the assay: Antibacterial activity against Staphylococcus aureus assessed as diameter of growth inhibition zone at 100 ug/ml after 24 hr by agar diffusion method. It counts as functional. To be noted: read-out: DIZ.
Turning to `O=[N+]([O-])c1ccc(N/N=C(/C=C/c2ccccc2)c2ccccc2)c([N+](=O)[O-])c1`, the zone of inhibition at 100 µg/mL is 8.5 mm.
Still for that read-out and setting: as for `CC(/C=C/c1ccccc1)=N\Nc1ccccc1`, the figure is 8.5 mm.
Consider `CC1=NC(=C/c2ccccc2)/C(=N/Nc2ccccc2)O1`, for which the zone of inhibition at 100 µg/mL was 16 mm.
`CC1=NC(=C/c2ccccc2)/C(=N/Nc2ccc([N+](=O)[O-])cc2[N+](=O)[O-])O1`: the zone of inhibition at 100 µg/mL came to 9 mm.
Turning to `CC(/C=C/c1ccccc1)=N/Nc1nc(-c2ccccc2)cs1`, the zone of inhibition at 100 µg/mL turned out to be 9.5 mm.
